Experimental data published in patent publication US8916149B2, “Preventing and treating sepsis” (University of Rochester, priority 2008, dated 2014).
One block for each molecule: values may come before it.

How the values were obtained:
β3 integrins = target: T1, β3 integrins (Homo sapiens, UniProt P05106); settings: cited from earlier work
T1 sequence (P05106 27-788): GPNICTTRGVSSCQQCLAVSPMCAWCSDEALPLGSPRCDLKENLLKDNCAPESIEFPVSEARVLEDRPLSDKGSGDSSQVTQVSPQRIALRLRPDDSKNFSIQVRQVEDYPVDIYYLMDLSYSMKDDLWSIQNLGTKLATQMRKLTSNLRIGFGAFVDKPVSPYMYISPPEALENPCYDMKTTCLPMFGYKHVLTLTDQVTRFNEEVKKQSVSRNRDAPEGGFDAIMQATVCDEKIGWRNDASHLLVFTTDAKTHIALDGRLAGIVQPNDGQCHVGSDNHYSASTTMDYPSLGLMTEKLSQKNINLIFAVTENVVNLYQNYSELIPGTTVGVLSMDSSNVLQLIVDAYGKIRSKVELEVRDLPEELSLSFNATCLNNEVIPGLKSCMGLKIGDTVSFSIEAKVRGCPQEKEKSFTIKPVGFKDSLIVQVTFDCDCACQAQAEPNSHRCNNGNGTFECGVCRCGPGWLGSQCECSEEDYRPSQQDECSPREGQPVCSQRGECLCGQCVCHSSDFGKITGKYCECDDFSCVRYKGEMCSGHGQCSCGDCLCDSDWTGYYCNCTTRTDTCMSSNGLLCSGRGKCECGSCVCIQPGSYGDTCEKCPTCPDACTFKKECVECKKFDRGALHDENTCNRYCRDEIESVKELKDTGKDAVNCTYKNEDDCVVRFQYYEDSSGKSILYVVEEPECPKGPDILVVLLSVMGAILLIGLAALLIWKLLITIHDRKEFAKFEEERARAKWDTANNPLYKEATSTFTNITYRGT

β1 integrins = β1 integrins (Homo sapiens, UniProt P05556); settings: cited from earlier work
Sequence of β1 integrins (P05556 21-798): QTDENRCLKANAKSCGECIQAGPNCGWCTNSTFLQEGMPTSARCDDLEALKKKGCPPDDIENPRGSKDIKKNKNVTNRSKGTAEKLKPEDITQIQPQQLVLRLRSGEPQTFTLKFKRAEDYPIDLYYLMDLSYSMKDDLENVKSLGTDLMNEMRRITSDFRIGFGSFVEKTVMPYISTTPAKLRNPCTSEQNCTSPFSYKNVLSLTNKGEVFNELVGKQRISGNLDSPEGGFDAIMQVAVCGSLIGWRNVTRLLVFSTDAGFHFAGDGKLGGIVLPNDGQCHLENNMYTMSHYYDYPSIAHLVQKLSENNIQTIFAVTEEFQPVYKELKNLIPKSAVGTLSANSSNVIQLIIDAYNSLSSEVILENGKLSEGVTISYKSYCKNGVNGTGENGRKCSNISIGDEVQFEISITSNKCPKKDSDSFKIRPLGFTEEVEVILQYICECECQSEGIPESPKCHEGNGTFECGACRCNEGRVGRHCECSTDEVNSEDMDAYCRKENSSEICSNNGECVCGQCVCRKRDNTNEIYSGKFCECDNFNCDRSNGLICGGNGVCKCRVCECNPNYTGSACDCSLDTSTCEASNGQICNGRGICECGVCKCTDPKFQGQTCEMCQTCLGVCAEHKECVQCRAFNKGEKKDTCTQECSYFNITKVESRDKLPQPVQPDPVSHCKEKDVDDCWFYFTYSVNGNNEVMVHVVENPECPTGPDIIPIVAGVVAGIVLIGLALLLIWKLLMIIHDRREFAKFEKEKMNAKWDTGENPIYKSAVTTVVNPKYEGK

[1] = tested on: mice challenged with an LD90 of LPS; settings: LPS at LD90, single dose 200 μg i.v.; control 90%
Description: (§1) 200 μg of the RGD peptide or PBS was given 12 hours before and after CLP via i.v. injection (n=20 per group). […] 200 μg of the RGD peptide or PBS was given via i.v. injection before receiving […] of LPS (i.p.) (n=10 per group). The statistical significance of mortality was determined by the Kaplan-Meyer log-rank test.
In order to examine whether the RGD peptide alters mortality in ‘high-grade’ sepsis, 90% mortality was induced by endotoxemia.

septic mice = settings: 'mid-grade' sepsis (CLP), 200 μg i.v. 12 hours before and after CLP
Description: as §1
CLP was used to induce acute septic peritonitis as described (Rhee et al., J Surg Res 115:74 (2003)). Briefly, mice (C57BL/6, 6-8 weeks) were anesthetized using inhaled Isoflurane, a midline incision (approximately 1 cm) was made below the diaphragm, the cecum was […], ligated approximately […] distal and then punctured through and through with a 22-gauge needle. Cecum was gently squeezed to excise its contents. Sham animals underwent the same procedure with no ligation or puncture. The abdominal incision was then closed in layers with Ethilon 6.0 suture. Mice were resuscitated with 1.0 ml of Ringer's solution via subcutaneous injection. Animals recovered under a heat lamp for approximately 30 minutes and were allowed food and water ad lib.

human neutrophils [2] = test: Random migration of neutrophils on FN-coated cover glass (live-cell imaging); format: cell-based; settings: for reversal of the inhibitory effect of rhAPC on neutrophil migration: agonists of PAR-1 and S1P1; for random migration of neutrophils on FN induced by fMLP: 10 μg/ml protein
Description: Delta T dishes were coated with human FN (50 μg/ml, BD Biosciences, San Jose, Calif.) for overnight at 4° C. and then for 4 h at room temperature. Plates were then rinsed with L-15 media. […] The cells were then added to FN-coated dishes in 1.5 ml of L-15 with 2 mg/ml of glucose. For neutrophil live cell staining, 2 μM Green Cell Tracker CMFDA (5-chloromethylfluorescein diacetate; Molecular Probes, Carlsbad, Calif.) was used. Temperature was maintained at 37° C. throughout the experiment using a FCS2 live-cell imaging chamber (Bioptechs, Butler, Pa.). Images were acquired for 30 to 60 minutes under a 10× objective lens using a Nikon TE-2000U inverted microscope. Phase contrast images were acquired every 5 seconds and fluorescence images every 30 seconds. Cell paths were traced using MetaVue™ imaging software (Molecular Devices Corporation, Downingtown, Pa.).
Random migration was investigated by adding fMLP or IL-8 to media at a final concentration of 10^−8M and analyzed by manually tracing the outline of each cell in selected frames (i.e., at 50 second intervals). The x and y coordinates of each cell were measured using ImageJ software and were corrected so that the starting position was x=0 and y=0.
The time-lapsed images of migrating neutrophils were taken under phase contrast microscopy. Each image was thresholded and binarized based on brightness to define the centroids of the neutrophils. The closest centroids between consecutive images were linked as a trajectory under the assumption that these centroids were made by the same neutrophil. The maximum distance between the closest centroids was also defined to preclude the artifacts due to cells moving into and out of the field of view.

human neutrophils [3] = test: Neutrophil adhesion assay on immobilized fibronectin (FN); format: cell-based; settings: 10 μg/ml protein
Description: The adhesion assay was carried out essentially as described (Vorup-Jensen et al., PNAS 102:1614 (2005)). Cover slips were coated with FN in coating buffer (150 mM NaCl/20 mM Tris.HCl, pH 9.0) for over night at 4° C. and for 4 hours at room temperature. Residual binding sites were blocked by incubation of the wells with 0.05% (wt/vol) polyvinylpyrrolidone in PBS for 30 minutes at room temperature. […] The cover slips were aspirated, and washed with L15 medium. […] Cells (250 μl) were then immediately added, and further incubated at 37° C. for 15 minutes. Unbound cells were then washed with warm L15 medium. The bound cells were then fixed with formaldehyde. For each experimental condition from three independent donors, five random phase-contrast images were obtained, and the number of cells in each well was scored from printed micrographs.

αVβ3 = target: T2, αVβ3 (Homo sapiens, UniProt P05106+P06756); test: Solid phase integrin ligand binding assay; settings: 1 mM Mn2+, 1 mM Ca2+, 1 mM Mg2+
T2 construct: purchased US Biological, Swampscott, Mass
T2 sequence (P06756 31-889 limits assumed, one chain of several): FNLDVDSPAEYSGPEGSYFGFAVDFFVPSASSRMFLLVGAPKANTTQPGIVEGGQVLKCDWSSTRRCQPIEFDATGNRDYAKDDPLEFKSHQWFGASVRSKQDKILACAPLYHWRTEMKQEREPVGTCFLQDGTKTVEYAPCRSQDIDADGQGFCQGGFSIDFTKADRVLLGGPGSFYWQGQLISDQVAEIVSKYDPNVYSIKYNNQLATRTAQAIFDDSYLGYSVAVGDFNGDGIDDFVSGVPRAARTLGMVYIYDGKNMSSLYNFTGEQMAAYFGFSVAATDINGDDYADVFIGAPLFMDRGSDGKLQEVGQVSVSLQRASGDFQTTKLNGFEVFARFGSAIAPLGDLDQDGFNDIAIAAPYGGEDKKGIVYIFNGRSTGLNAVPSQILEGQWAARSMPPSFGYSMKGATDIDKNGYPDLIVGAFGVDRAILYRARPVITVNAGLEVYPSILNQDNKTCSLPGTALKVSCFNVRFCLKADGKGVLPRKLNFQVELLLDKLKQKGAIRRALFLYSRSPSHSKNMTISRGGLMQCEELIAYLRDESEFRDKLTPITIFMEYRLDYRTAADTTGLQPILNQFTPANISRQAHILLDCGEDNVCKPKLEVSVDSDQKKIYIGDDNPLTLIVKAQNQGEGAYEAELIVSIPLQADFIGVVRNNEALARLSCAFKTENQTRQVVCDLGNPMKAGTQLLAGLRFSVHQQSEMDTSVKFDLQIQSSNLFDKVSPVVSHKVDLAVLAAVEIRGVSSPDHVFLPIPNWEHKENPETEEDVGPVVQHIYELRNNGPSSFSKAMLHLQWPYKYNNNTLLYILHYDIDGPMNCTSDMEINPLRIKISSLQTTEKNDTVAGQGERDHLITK
T2 sequence (P06756 891-1048 partner limits assumed, one chain of several): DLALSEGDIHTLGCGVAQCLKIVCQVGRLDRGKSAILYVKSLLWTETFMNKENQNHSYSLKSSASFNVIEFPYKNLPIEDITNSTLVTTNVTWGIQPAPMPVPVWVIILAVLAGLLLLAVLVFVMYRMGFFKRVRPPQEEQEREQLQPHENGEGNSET
Description: (§2) The solid phase binding assay was performed using purified soluble human α3β1, α5β1, and αVβ3 (US Biological, Swampscott, Mass.). Two (2) μg/ml of soluble integrins were added to microtiter wells for capture with immobilized monoclonal antibody against β1 or β3 subunits (mAb TS2/6 for β1 and mAb BB10 (Chemicon, Temecula, Calif.) for β3 integrins). […] After washing, bound APC was chromogenically detected by peroxidase-streptavidin conjugate anti-PC (Diapharma, West Chester, Ohio) or chromogenic substrate S-2366 (Diapharma, West Chester, Ohio). To minimize dissociation, all wash buffers contained 1 mM Mn^2+, and <15 minutes elapsed between the end of binding and beginning of color development. Functional blocking antibodies for integrins were from Chemicon (Temecula, Calif.).
(§3) Among the neutrophil integrins that recognize the RGD motif, α3β1, α5β1, and αVβ3 are key in regulating neutrophil chemotaxis (Yauch et al., Mol. Biol. Cell 9:2751 (1998); Burns et al., J. Immunol. 166:4644 (2001); Sixt et al., J. Biol. Chem. 276:18878 (2001)). To test whether APC can bind directly to the integrins, an ELISA-like solid phase receptor-binding assay was performed (FIG. 2E). Soluble α3β1, α5β1, and αVβ3 were captured onto microtiter wells using mAbs specific for β1 or β3.

α3β1 = target: T3, α3β1 (Homo sapiens, UniProt P05556+P26006); test: Solid phase integrin ligand binding assay; settings: 1 mM Mn2+, 1 mM Ca2+, 1 mM Mg2+
T3 construct: purchased US Biological, Swampscott, Mass
T3 sequence (P26006 33-872 limits assumed): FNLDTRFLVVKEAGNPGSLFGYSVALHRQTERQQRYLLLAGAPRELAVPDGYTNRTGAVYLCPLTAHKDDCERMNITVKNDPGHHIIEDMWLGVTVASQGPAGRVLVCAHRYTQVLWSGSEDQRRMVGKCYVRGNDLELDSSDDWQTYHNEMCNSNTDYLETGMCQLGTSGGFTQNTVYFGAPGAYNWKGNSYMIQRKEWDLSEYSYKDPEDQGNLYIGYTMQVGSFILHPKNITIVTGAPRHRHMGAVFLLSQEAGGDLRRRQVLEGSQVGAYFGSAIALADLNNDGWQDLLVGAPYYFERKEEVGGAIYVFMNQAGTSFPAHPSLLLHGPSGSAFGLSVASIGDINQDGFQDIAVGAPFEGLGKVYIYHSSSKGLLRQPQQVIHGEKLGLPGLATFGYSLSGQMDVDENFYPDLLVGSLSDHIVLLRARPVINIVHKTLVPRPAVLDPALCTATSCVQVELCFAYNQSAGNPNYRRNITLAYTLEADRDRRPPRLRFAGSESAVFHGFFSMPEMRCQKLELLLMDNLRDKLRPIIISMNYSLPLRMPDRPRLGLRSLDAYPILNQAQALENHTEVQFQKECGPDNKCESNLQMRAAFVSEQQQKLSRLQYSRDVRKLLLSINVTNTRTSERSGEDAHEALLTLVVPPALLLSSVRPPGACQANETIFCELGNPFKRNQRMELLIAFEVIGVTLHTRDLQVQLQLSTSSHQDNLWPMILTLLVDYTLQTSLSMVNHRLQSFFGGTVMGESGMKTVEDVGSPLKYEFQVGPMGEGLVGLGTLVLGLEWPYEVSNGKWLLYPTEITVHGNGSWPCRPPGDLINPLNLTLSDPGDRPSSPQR
T3 sequence (P26006 876-1051 partner limits assumed): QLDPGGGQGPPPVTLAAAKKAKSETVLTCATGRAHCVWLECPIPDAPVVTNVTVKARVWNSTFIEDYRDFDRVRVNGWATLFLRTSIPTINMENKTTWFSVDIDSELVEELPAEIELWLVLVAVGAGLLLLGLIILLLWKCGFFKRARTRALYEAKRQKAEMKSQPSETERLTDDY
T3 sequence (P05556 21-798): as the sequence (P05556 21-798) above
Description: as §2, §3

α5β1 = target: T4, α5β1 (Homo sapiens, UniProt P05556+P08648); test: Solid phase integrin ligand binding assay; settings: 1 mM Mn2+, 1 mM Ca2+, 1 mM Mg2+
T4 construct: purchased US Biological, Swampscott, Mass
T4 sequence (P08648 42-894 limits assumed): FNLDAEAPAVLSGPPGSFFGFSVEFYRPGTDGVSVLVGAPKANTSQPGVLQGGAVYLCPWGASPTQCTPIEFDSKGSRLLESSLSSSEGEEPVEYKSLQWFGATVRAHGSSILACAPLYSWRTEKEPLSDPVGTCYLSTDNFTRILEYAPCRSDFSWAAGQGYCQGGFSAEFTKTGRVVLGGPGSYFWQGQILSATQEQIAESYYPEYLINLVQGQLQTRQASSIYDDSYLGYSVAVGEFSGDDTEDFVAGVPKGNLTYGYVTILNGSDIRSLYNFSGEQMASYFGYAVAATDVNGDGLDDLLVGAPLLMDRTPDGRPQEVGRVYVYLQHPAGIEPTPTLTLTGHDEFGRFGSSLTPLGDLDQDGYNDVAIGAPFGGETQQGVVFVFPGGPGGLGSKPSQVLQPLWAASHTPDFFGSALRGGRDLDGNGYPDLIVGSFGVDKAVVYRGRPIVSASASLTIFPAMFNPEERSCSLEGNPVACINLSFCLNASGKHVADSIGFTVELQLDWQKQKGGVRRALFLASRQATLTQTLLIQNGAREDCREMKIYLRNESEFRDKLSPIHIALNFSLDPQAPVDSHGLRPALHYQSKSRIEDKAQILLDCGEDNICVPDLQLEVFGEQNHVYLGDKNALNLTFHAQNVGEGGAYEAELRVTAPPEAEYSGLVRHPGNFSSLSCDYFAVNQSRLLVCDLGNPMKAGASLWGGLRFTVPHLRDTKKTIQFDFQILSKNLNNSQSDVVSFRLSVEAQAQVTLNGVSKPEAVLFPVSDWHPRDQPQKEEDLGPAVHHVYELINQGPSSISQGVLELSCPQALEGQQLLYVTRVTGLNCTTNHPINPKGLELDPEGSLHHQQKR
T4 sequence (P08648 895-1049 partner limits assumed): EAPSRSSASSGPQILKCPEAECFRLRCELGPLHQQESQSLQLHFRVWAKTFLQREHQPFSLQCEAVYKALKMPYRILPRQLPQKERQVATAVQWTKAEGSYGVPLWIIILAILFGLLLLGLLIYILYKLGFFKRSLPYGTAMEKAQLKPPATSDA
T4 sequence (P05556 21-798): as the sequence (P05556 21-798) above
Description: as §2, §3

hEPCR-mCFP and β1-mYFP = target: T5, hEPCR-mCFP and β1-mYFP (Homo sapiens, UniProt P05556+Q9UNN8); test: Dynamic FRET (TIRF) between hEPCR-mCFP and β1-mYFP in HEK293 cells; format: cell-based
T5 construct: expressed in transfected cells; host or cells: HEK293
T5 sequence (Q9UNN8 18-238): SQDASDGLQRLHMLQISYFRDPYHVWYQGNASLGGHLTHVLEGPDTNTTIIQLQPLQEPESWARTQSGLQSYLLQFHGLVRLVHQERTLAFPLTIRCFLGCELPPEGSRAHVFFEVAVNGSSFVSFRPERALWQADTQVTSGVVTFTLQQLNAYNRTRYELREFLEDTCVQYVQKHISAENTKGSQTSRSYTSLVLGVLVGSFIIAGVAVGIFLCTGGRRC
T5 sequence (P05556 21-798): as the sequence (P05556 21-798) above
Description: Dynamic FRET imaging was carried out using a Nikon Eclipse TE2000-U microscope (Nikon, Melville, N.Y.) equipped with a Dual-View (Optical Insights, Tucson, Ariz.) and CFP/YFP dual-band filter set (Chroma, Rockingham, Vt.). TIRF imaging was performed with a white light TIRF aperture diaphragm and a 100×TIRF 1.49 NA oil immersion objective coupled to a QuantEM EMCCD (Roper Scientific, Tucson, Ariz.). The microscope was controlled by NIS element software (Nikon, Melville, N.Y.) and data analysis was performed with AutoDeblur (Autoquant Imaging, Troy, N.Y.) by the sensitized emission method (Gordon et al., Biophys. J. 74:2702 (1998)). 48 hours after co-transfection with hEPCR-mCFP and β1-mYFP DNA construct in Delta T dish (Fisher Scientific, Pittsburgh, Pa.), HEK293 cells were washed with PBS and then 1 ml L15 medium supplemented with 2 mg/ml D-glucose. Cells were equilibrated for about 10 minutes at 37° C. in a FCS2 live cell imaging chamber (Bioptechs, Butler, Pa.). […]
Therefore, it was tested whether the anti-EPCR antibody relieved the rhAPC-induced inhibition of neutrophil adhesion on FN. […] Since the ligand will only bind to cell surface receptors, optical measurements were confined to the plasma membrane using through the objective total internal reflection fluorescence (TIRF).

Molecule: acetyl-c[(penicillamine)-O-methyltyrosine-ARGDN(tetrahydroisoquinoline-3-carboxylic acid)C]—NH2 [RGD peptide]
affinity to β3 integrins (β3 integrins): high affinity
affinity to β1 integrins (β1 integrins): high affinity
mortality [1]: 60%
7-day mortality (septic mice): no significant change
time of survival (septic mice): reproducibly prolonged

Molecule: FC(F)(F)c1cccc(-c2noc(-c3cc(-c4ccccc4)c(C(F)(F)F)s3)n2)c1 [SEW2871, reference compound]
reversal of the inhibitory effect of rhAPC on neutrophil migration (human neutrophils [2]): did not reverse

Molecule: SFLLRNPNDKYEPF (Aritficial Sequence) [reference compound]
reversal of the inhibitory effect of rhAPC on neutrophil migration (human neutrophils [2]): did not reverse

Molecule: rhPC: the zymogen protein C, not activated [reference compound]
random migration of neutrophils on FN induced by fMLP (human neutrophils [2]): failed to block
fMLP-induced adhesion of human neutrophils to immobilized FN (human neutrophils [3]): failed to block

direct binding to soluble αVβ3 (αVβ3): significantly less
direct binding to soluble α3β1 (α3β1): significantly less
direct binding to soluble α5β1 (α5β1): significantly less
B1: RGE-APC: rhAPC mutant with the RGD sequence mutated to RGE (Glu in place of Asp-222) (protein)
chain 1: ANSFLEELRHSSLERECIEEICDFEEAKEIFQNVDDTLAFWSKHVDGDQCLVLPLEHPCASLCCGHGTCIDGIGSFSCDCRSGWEGRFCQREVSFLNCSLDNGGCTHYCLEEVGWRRCSCAPGYKLGDDLLQCHPAVKFPCGRPWKRMEKKRSHL
chain 2: LIDGKMTRRGESPWQVVLLDSKKKLACGAVLIHPSWVLTAAHCMDESKKLLVRLGEYDLRRWEKWELDLDIKEVFVHPNYSKSTTDNDIALLHLAQPATLSQTIVPICLPDSGLAERELNQAGQETLVTGWGYHSSREKEAKRNRTFVLNFIKIPVVPHNECSEVMSNMVSENMLCAGILGDRQDACEGDSGGPMVASFHGTWFLVGLVSWGEGCGLLHNYGVYTKVSRYLDWIHGHIRDKEAPQKSWAP
random migration of neutrophils on FN induced by fMLP (human neutrophils [2]): had no effect

FRET efficiency between EPCR-mCFP and β1-mYFP (hEPCR-mCFP and β1-mYFP): No obvious FRET change
B2: Gla-less APC: mutant form of APC that lacks the EPCR binding motif (Enzyme Research Lab.) (protein)
chain: SKHVDGDQCLVLPLEHPCASLCCGHGTCIDGIGSFSCDCRSGWEGRFCQREVSFLNCSLDNGGCTHYCLEEVGWRRCSCAPGYKLGDDLLQCHPAVKFPCGRPWKRMEKKRSHLLIDGKMTRRGDSPWQVVLLDSKKKLACGAVLIHPSWVLTAAHCMDESKKLLVRLGEYDLRRWEKWELDLDIKEVFVHPNYSKSTTDNDIALLHLAQPATLSQTIVPICLPDSGLAERELNQAGQETLVTGWGYHSSREKEAKRNRTFVLNFIKIPVVPHNECSEVMSNMVSENMLCAGILGDRQDACEGDSGGPMVASFHGTWFLVGLVSWGEGCGLLHNYGVYTKVSRYLDWIHGHIRDKEAPQKSWAP
fMLP-induced adhesion of human neutrophils to immobilized FN (human neutrophils [3]): inhibited adhesion to a slightly less, but similar, degree as the wild type protein
